Assay results: patent US9469618B2, “Thiadiazolidinediones as GSK-3 inhibitors” (ASD THERAPEUTICS PARTNERS LLC, priority 2012, dated 2016)
≈ marks a conversion by molar mass, not a printed value.

Tests used:
[1] = target: T1, human recombinant GSK3β (N-terminal 6His-tagged recombinant enzyme with an H350L mutation) (Homo sapiens, UniProt P49841); assay: GSK-3 assay (Z'-LYTE FRET enzymatic activity); format: biochemical; conditions: 2 nM enzyme, 12.5 μM ATP, 2 μM Ser/Thr 9 peptide, 60 min at room temperature; concentration in M units; read-out: GSK-3 inhibition pEC50 average (converted)
T1 construct: 6His (N); purchased Millipore (Billerica, Mass., USA)
Protocol: The enzymatic activity of GSK3β was determined with a commercial system based on the Z'-LYTE® technology, available from Life Technologies (Carlsbad, Calif., USA), using human recombinant GSK3β (N-terminal 6His-tagged recombinant enzyme with an H350L mutation) from Millipore (Billerica, Mass., USA) as the enzyme source. This technology utilizes the fluorescence resonance energy transfer (“FRET”) process between fluorescein and coumarin. The assay principle is based on the differential sensitivity of phosphorylated and non-phosphorylated peptide to proteolytic cleavage, which precludes the energy transfer process between the two fluorophores attached to both sides of the cleavage site. […] The assay is performed in 384-well black plates, in a final volume of 10 μl, with 2 nM enzyme concentration in 50 mM Hepes pH 7.5, 50 mM MgCl2, 5 mM EGTA and 0.05% Brij-35, using 12.5 μM ATP and 2 μM substrate peptide. The latter is a synthetic peptide, provided by Invitrogen under the commercial name “Ser/Thr 9 peptide”, and it is based upon the sequence of a GSK3β substrate protein (glycogen synthase I) containing Ser-641. The peptide is labeled at both ends with fluorescein and coumarin. The assay is carried out in the presence of different concentrations of the tested compound, at a final 1% (v/v) DMSO concentration. After a 60 min incubation at room temperature, 5 μl of a commercial protease solution (sold by the same vendor in the assay kit) is added and a subsequent 1 h incubation at room temperature is performed, before adding 5 μl of a suitable “stop solution”, also provided by the vendor in the kit. After that, fluorescence intensity is recorded, monitoring emission at both 445 and 520 nm, upon excitation at 400 nm. An emission ratio is finally calculated, using the quotient among the emission at 445 nm divided by that at 520 nm.
The emission ratio of each tested sample is normalized to that of the control wells, so that for every compound concentration the percentage of inhibition is calculated by using the following equation:
[formula] where “S” is the emission from the wells with the tested sample, “E” is the average emission from control wells with full enzyme activity and “B” is the average emission from wells with full enzyme inhibition. Inhibition values obtained for every compound concentration are finally used to calculate the pEC50 of the tested compound, this parameter being the negative value of the logarithm of the compound concentration, in M units, causing 50% of its maximum effect (i.e., the higher the pEC50 value the higher the potency of the compound). For that purpose the data were fitted to the following equation using the nonlinear regression function of GraphPad™ Prism 5.0 (GraphPad Software Inc.): […]

[2] = Thermodynamic solubility of TDZDs; format: physicochemical; conditions: phosphate buffered saline, aqueous buffer, thermodynamic from solid; aqueous 0.01 M PBS pH 7.4, 2 mg/mL samples, 24 hours mixing, LC-UV
Protocol: Thermodynamic solubility was determined in duplicate from samples with a compound concentration of 2 mg/mL in aqueous 0.01 M phosphate buffered saline (PBS) pH 7.4 with a mixing period of 24 hours. Analysis and quantification was performed by LC-UV. Calibration lines were prepared for each compound from samples at of 1.0, 0.1, 0.01 and 0.001 mg/mL concentration in acetonitrile.

T1 sequence (P49841 whole entry, stated change not applied): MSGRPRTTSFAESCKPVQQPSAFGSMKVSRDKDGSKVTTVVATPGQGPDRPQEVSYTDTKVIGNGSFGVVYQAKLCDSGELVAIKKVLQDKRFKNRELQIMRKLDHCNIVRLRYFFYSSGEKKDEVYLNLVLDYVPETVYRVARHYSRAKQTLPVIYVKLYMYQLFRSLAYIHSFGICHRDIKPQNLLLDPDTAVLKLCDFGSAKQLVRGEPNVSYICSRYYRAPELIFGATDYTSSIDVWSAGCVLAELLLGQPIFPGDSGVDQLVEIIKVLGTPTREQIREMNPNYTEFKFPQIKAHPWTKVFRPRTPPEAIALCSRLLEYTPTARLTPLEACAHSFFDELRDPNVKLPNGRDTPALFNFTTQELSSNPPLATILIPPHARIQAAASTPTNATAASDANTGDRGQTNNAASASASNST

EC50 [1] [µM]	solubility thermodynamic at 24 h [2] [µg/mL]	SMILES
0.631	617 (≈ 2610 µM)	CCn1c(=O)sn(Cc2ccccc2)c1=O [Compound 1, 2-benzyl-4-ethyl-[1,2,4]thiadiazolidine-3,5-dione]
1.58	1840 (≈ 7300 µM)	O=c1sn(Cc2ccccc2)c(=O)n1CCO [Compound 4, 2-benzyl-4-(2-hydroxy-ethyl)-[1,2,4]thiadiazolidine-3,5-dione]

Continued, molecule first:

SMILES	EC50 [1] [µM]	solubility thermodynamic at 24 h [2] [µg/mL]
O=c1sn(Cc2ccccc2)c(=O)n1CC1CCCO1 (stereo not drawn) [Compound 2, 2-benzyl-4-(tetrahydro-furan-2-ylmethyl)-[1,2,4]thiadiazolidine-3,5-dione]	2	1030 (≈ 3520 µM)
CCOC(=O)Cn1c(=O)sn(C(Cc2ccccc2)C(=O)OCC)c1=O (stereo not drawn) [Compound 3]	0.0251	22 (≈ 57.8 µM)
O=c1sn(-c2cccc3ccccc23)c(=O)n1Cc1ccccc1 [Compound 5, reference compound]		≤ 1
